Earlier results in patent US20020112260A1, “Plants having resistance to multiple herbicides and its use” (Asgrow Seed Company LLC, priority 1997, published 2002).

System: soybeans
Conditions: non-STS soybeans

Row | SMILES | crop injury
1 | COc1cc(Cl)nc(NC(=O)NS(=O)(=O)c2ccccc2C(=O)O)n1 [chlorimuron] | can cause significant crop injury
2 | COc1nc(C)nc(NC(=O)NS(=O)(=O)c2ccsc2C(=O)O)n1 [thifensulfuron] | can cause significant crop injury
